Calls of active or inactive are those of the source.
Tests used:
[1] = molecular target: T1, Rac GTPase-activating protein 1 (Homo sapiens, UniProt Q9H0H5); experiment: MgcRacGAP GTPase-activating activity inhibitors, confirmation, biochemical, ADP Hunter fluorescence, primary and confirmatory (AID 624330); type: functional
T1 sequence (Q9H0H5 whole entry): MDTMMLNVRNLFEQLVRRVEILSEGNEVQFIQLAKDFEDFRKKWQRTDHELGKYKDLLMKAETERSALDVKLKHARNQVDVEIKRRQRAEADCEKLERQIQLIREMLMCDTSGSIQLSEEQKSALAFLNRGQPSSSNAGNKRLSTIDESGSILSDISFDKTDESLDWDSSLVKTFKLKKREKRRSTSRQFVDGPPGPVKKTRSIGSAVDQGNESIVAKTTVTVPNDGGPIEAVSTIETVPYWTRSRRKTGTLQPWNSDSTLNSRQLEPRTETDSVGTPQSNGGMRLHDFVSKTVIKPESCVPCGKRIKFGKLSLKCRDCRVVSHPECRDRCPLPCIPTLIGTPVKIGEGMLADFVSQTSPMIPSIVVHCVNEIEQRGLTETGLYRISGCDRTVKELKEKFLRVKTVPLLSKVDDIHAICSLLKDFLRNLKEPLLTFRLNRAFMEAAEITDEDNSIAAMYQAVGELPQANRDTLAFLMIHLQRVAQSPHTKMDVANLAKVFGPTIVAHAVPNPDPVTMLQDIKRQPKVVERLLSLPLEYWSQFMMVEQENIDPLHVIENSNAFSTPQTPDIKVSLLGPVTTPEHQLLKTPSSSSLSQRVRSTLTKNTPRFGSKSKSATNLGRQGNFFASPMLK

[2] = molecular target: Genome polyprotein (dengue virus type 2, UniProt P29990); experiment: Dengue-2 NS5 methyltransferase inhibitors, primary screen, biochemical, confirmation dose response (AID 588689); type: functional
[3] = molecular target: Induced myeloid leukemia cell differentiation protein Mcl-1 (Homo sapiens, UniProt Q07820); type: functional
[4] = molecular target: Glucose-6-phosphate 1-dehydrogenase (Homo sapiens, UniProt P11413); experiment: human G6PD enzyme inhibitors, dose response, selectivity assay for P. falciparum G6PD inhibitor project, biochemical, fluorescence (AID 504792); type: functional
[5] = system: HEK293; experiment: inhibitors of LMP1-driven NF-kB reporter, dose response, cell-based, HEK293, luciferase, cherry-pick (AID 588343); type: functional; conditions: Homo sapiens
[6] = molecular target: FAD-linked sulfhydryl oxidase ALR (Homo sapiens, UniProt P55789); experiment: inhibitors of human ALR sulfhydryl oxidase, dose response, biochemical, H2O2 detection, luminescence, cherry-pick (AID 493248)
[7] = molecular target: Eukaryotic translation initiation factor 4E (Mus musculus, UniProt P63073); experiment: eIF4E–eIF4G protein interaction inhibitors, dose response, biochemical, TR-FRET (AID 855); type: functional;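 also: potency for disrupting eIF4E binding to eIF4GI seen as loss of FRET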
[8] = molecular target: T2, Polyadenylate-binding protein 1 (Homo sapiens, UniProt P11940); experiment: PABP1 MLLE–PAM2 interaction inhibitors, dose response, miRNA deadenylation inhibitor project, biochemical, fluorescence polarization, Cy5-PAM2 peptide, secondary (AID 602260); type: functional; conditions: read-out: IC50_Mean
[9] = molecular target: T2, Polyadenylate-binding protein 1; experiment: PABP1 MLLE–PAM2 binding inhibitor potency, dose response, biochemical, fluorescence polarization, FITC-PAM2 peptide (AID 602259); type: functional; conditions: read-out: IC50_Mean
[10] = molecular target: Paired box protein Pax-8 (Homo sapiens, UniProt Q06710); experiment: inhibitors of PAX8-driven TPO luciferase reporter, dose response, RMG-I cells, cherry-pick (AID 687027); type: functional, cell-based;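 also: luciferase reporter driven by Pax8 target thyroperoxidase promoter measured by SteadyGlo luminescence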
[11] = cytotoxicity in OVCAR8 ovarian cancer cells, dose response, PAX8 project, cell-based, plate reader, dry powder samples (AID 743197); type: functional; conditions: OVCAR-8
[12] = molecular target: Voltage-dependent T-type calcium channel subunit alpha-1H (Homo sapiens, UniProt O95180); type: functional;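 also: channel activity triggered by adding a high calcium stimulation buffer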
[13] = system: P388/ADR; experiment: cells; type: functional
[14] = system: SN12K1; experiment: cells; type: functional; conditions: Homo sapiens
[15] = inhibitors of HIV Env-driven cell fusion, dose response, cherry-pick (AID 652057); type: functional, cell-based
[16] = inhibitors of clade B AD8 Env fusion, dose response, cell-based, cherry-pick (AID 652062); type: functional;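 also: luciferase signal from cell-cell fusion driven by HIV-1 clade B AD8 Env; potency is for inhibitors of fusion seen as a drop in luminescence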
[17] = molecular target: Cytochrome P450 2D6 (Homo sapiens, UniProt P10635);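 also: CYP2D6 member of a cytochrome P450 panel assay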
[18] = system: HEK293; experiment: cells; type: functional, cell-based; conditions: Homo sapiens
[19] = molecular target: Nonstructural protein 1 (Influenza A virus, UniProt Q194T2); type: functional, Influenza A virus (A/California/07/2009(H1N1))
[20] = system: HEK293; experiment: NOD1 signaling inhibitors, primary screen, cell-based, luminescence, uHTS (AID 1578); type: functional; conditions: Homo sapiens
[21] = system: HEK293; experiment: cells; type: functional, cell-based; conditions: Homo sapiens; remark: listed apart in the source
[22] = system: HEK293; experiment: NOD2 signaling inhibitors in MDP-stimulated cells, cell-based, uHTS, luminescence (AID 2001); type: functional; conditions: Homo sapiens

Chain of Voltage-dependent T-type calcium channel subunit alpha-1H (O95180 whole entry): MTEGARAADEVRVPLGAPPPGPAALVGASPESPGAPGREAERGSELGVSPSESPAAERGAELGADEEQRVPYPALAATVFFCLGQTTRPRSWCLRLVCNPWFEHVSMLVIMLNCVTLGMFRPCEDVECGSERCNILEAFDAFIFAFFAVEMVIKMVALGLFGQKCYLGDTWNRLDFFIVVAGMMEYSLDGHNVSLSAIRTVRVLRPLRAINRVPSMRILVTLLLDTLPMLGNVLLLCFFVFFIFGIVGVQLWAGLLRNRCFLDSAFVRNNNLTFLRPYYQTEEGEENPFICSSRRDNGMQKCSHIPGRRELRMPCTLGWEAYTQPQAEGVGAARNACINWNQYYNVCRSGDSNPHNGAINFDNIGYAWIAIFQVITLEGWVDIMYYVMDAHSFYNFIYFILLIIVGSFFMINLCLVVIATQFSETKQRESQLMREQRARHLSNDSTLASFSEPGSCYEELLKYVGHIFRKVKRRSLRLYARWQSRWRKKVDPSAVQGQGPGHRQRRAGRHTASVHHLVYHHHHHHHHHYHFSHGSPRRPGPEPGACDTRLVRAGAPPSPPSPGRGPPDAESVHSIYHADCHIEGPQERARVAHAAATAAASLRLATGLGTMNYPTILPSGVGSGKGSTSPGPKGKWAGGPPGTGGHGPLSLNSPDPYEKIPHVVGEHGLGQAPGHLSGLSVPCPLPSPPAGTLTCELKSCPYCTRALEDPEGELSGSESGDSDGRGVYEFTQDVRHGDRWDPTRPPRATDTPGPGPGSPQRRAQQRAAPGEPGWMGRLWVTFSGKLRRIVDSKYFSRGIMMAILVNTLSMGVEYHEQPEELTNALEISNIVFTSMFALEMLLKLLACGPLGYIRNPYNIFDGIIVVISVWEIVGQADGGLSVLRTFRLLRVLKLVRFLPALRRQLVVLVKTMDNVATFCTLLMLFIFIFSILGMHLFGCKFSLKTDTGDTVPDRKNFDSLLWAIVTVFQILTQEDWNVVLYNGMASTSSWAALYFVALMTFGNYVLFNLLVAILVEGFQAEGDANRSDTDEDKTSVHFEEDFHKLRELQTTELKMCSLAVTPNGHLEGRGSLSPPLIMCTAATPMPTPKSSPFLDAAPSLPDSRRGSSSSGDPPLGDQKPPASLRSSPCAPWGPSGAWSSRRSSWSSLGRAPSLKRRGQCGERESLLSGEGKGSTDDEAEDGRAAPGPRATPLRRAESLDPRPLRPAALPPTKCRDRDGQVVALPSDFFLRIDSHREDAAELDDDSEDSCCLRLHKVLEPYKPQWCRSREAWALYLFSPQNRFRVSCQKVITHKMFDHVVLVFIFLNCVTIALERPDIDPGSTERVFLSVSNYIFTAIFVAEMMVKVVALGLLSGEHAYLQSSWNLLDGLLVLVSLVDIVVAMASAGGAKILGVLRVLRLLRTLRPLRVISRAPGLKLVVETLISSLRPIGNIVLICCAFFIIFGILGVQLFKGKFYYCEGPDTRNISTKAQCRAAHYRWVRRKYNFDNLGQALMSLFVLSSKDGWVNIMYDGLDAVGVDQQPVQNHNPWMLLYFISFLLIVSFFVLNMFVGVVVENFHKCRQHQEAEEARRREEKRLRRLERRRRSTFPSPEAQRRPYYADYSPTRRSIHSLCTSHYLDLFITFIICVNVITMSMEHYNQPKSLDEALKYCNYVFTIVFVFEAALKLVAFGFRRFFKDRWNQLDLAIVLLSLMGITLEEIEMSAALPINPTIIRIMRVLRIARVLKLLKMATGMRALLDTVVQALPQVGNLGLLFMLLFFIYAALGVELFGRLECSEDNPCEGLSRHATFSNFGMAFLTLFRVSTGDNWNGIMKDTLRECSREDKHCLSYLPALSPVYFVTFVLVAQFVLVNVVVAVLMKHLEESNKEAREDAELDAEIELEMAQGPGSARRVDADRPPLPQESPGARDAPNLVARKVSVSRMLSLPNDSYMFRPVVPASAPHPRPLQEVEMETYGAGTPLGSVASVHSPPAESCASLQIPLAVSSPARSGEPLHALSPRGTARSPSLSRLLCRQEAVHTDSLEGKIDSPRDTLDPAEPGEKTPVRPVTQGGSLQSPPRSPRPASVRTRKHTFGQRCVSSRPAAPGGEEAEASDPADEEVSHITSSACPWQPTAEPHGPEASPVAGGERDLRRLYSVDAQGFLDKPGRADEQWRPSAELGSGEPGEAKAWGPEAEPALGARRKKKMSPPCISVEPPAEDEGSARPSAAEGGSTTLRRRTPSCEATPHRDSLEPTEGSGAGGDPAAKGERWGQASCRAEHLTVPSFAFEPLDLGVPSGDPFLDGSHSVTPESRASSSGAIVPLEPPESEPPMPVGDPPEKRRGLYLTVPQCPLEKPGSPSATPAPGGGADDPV
T2 sequence (P11940 whole entry): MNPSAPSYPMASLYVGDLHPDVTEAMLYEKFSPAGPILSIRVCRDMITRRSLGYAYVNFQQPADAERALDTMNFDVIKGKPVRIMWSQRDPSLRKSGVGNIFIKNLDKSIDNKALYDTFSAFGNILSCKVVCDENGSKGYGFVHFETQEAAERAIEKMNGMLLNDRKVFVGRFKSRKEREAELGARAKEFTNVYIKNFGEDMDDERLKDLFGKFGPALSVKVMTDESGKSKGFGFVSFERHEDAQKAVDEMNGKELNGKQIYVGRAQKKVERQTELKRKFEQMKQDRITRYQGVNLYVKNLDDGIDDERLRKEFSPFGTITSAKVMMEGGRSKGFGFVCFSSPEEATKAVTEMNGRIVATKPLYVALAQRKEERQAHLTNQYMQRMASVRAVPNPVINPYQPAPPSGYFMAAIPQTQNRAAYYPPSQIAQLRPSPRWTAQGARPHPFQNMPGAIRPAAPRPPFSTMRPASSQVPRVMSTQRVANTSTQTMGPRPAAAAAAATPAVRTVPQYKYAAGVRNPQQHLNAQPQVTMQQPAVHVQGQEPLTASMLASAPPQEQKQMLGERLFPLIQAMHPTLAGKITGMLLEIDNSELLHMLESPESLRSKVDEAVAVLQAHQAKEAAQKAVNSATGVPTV
Chain of Induced myeloid leukemia cell differentiation protein Mcl-1 (Q07820 whole entry): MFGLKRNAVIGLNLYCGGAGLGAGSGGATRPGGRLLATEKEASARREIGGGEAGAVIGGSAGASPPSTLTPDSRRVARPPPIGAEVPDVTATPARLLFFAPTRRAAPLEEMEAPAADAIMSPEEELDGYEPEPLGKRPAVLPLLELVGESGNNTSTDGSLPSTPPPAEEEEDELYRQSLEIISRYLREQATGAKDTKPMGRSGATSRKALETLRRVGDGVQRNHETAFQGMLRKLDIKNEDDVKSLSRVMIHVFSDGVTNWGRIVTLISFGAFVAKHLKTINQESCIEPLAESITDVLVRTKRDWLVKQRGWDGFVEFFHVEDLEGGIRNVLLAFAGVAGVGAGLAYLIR
Chain of Glucose-6-phosphate 1-dehydrogenase (P11413 whole entry): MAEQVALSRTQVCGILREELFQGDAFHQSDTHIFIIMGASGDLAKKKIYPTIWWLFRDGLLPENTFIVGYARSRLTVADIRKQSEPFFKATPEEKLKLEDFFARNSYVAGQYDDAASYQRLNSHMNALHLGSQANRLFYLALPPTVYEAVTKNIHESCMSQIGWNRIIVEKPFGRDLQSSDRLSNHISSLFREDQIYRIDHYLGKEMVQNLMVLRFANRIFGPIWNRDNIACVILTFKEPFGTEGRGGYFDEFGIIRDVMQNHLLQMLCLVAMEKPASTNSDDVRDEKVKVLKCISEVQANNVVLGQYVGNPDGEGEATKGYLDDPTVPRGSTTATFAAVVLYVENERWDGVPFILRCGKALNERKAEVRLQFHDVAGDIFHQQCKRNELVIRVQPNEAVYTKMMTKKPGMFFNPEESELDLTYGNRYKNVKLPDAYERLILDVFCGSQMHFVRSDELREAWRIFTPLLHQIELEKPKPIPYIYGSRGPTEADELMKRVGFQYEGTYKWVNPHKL
Chain of Genome polyprotein (P29990 2492-3391 limits assumed): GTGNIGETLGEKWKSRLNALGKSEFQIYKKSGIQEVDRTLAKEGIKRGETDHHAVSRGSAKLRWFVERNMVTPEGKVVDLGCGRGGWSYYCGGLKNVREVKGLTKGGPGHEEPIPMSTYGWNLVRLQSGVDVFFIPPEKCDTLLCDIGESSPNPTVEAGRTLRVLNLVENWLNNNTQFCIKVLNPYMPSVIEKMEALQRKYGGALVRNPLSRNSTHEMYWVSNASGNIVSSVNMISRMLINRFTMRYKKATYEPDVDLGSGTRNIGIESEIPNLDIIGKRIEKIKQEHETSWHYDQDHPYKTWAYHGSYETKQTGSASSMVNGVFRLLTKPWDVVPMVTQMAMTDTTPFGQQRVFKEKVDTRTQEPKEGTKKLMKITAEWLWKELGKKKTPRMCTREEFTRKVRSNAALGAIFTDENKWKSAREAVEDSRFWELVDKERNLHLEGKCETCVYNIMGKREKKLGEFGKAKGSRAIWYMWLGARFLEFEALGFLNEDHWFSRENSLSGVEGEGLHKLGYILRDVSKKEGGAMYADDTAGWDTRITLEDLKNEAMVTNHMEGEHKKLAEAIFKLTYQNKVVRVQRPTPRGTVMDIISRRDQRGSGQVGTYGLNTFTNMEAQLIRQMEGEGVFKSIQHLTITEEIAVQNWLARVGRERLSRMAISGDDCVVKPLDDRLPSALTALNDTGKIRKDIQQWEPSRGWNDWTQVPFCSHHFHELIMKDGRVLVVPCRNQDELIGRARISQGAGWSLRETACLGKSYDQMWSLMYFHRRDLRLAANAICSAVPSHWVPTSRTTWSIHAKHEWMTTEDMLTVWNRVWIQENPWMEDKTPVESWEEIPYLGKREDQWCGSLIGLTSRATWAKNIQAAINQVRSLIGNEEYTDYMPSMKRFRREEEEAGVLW
Chain of Nonstructural protein 1 (Q194T2 whole entry): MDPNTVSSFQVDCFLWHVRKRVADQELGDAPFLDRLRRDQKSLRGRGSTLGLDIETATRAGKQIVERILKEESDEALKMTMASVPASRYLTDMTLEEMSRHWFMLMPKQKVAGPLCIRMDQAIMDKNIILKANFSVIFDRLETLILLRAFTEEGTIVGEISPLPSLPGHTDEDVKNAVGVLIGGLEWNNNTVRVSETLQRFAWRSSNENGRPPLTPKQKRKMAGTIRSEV

COc1cc(/C=C2\C(=O)N(c3cccc(C(=O)O)c3)N=C2C)ccc1OCc1ccccc1
IC50 [1]: 43.9 µM (active)
IC50 [2]: 7.99 µM (active)

COc1cccc2c(S)c(CCC(C)=O)c(C)nc12
IC50 [3]: < 0.4 µM (active)

CCSc1nc2cc(S(=O)(=O)N3CCOCC3)ccc2o1
IC50 [4]: > 80 µM (inactive)

COc1cc(C(=S)N2CCOCC2)cc(OC)c1OC(=O)c1ccc(F)cc1
AC50 [5]: > 350 µM (inactive)

COc1ccc(N2CCN(C(=O)CCNC(=O)Cn3ccc4ccccc4c3=O)CC2)cc1
AC50 [6]: 8.16 µM (active)
IC50 [7]: 50 µM (inactive)

Cc1ccc(N2C(S)=NC3c4cc(Cl)ccc4OC2(C)C3C(=O)N(C)C)cc1 (stereo unspecified)
IC50 [8]: > 66 µM (inactive)
IC50 [9]: > 66 µM (inactive)

Cc1ccc(S(=O)(=O)Nc2ccc3c(c2)C(=O)N([C@@H](C)CO)C[C@H](C)[C@@H](CN(C)Cc2ccc(Cl)c(Cl)c2)OCCCC[C@@H](C)O3)cc1
AC50 [10]: 5.22 µM (active)
AC50 [11]: > 70 µM (inactive)

Cc1ccc(-n2c(Cc3cccn3C)nnc2SCC(=O)NCc2ccc3c(c2)OCO3)cc1
EC50 [12]: 1.31 µM (active)

COc1ccc(OCC(=O)Nc2nnc(-c3ccco3)s2)cc1
IC50 [3]: 2.82 µM (active)

Cc1ccc(CNC(=O)Cn2cccc2C(=O)c2ccccc2)cc1
EC50 [12]: 3.77 µM (active)

Cc1nn(Cc2ccccc2)c(C)c1NC(=O)c1cc(-c2cccs2)on1
EC50 [12]: 2.71 µM (active)

C=C1CC2CC[C@@]34C[C@H]5O[C@@H]6C(O[C@H]7CC[C@H](CC(=O)OC8[C@H](C)C9OC%10C[C@]%11(C[C@@H]%12O[C@]%13(C[C@H](C)[C@@H]%14O[C@H]([C@H](O)C[C@H](O)CO)C[C@@H]%14O%13)C[C@H](C)[C@@H]%12O%11)OC%10CC9O[C@H]8C[C@H]8O[C@H](CC[C@@H]1O2)C[C@@H](C)C8=C)O[C@H]7[C@@H]6O3)[C@@H]5O4 (stereo partly specified)
GI50 ([13]; Mus musculus, P388/ADR): 0.000255 µM (active)

CCOC(=O)c1cc(Cl)ccc1OC(N)=O
GI50 [14]: > 100 µM (inactive)

Cc1ccc(S(=O)(=O)N(C)C[C@@H]2Oc3ncc(-c4cc5ccccc5o4)cc3C(=O)N([C@H](C)CO)C[C@@H]2C)cc1
AC50 [15]: 17.3 µM (active)
AC50 [16]: 36.2 µM (active)

CCN(CC)CC[n+]1ccc2c(C)c3[nH]c4ccccc4c3c(C)c2c1
GI50 [13]: 19.1 µM (inactive)
AC50 [17]: 3.16 µM (inconclusive)
GI50 [14]: 0.124 µM (active)

CC(=O)NC(c1ccco1)c1ccc2cccnc2c1O (stereo unspecified)
IC50 [18]: > 20 µM (inactive)
IC50 [19]: 12.5 µM (active)
EC50 [20]: > 20 µM (inactive)
IC50 [21]: > 20 µM (inactive)
IC50 [22]: > 20 µM (inactive)

COC(=O)c1scc(C#N)c1N/N=C(\C#N)S(=O)(=O)c1ccc(Cl)cc1
IC50 [18]: > 20 µM (inactive)
EC50 [20]: 6.08 µM (active)
IC50 [21]: > 20 µM (inactive)
IC50 [22]: 18.8 µM (inactive)

Source: ChEMBL document CHEMBL1201862, “PubChem BioAssay data set” (2004)
